In patent US9181172B2, “Rhein conjugates, preparation method thereof and their uses in producing medicines for treating diabetic nephrosis, intestinal adhesion and osteoarthritis” (priority 2005, dated 2015):
Where a name gives a salt, the structure may show the parent alone.

What was measured:
Format in all cases: in vivo
mice [1] = assay: Intestinal propulsion in mice; conditions: dosage 12 mg/kg, intravenous injection
Protocol: Fifty mice, male, weighting from 18 to 22 g, were randomly divided into five groups, namely, model control group, domperidone group, rhein sodium group, rhein glucosamine large dose group and low dose group.
Each group has 10 mice respectively. The mice were fasted, but water was not prohibited, and then administered with medicines by intravenous injection. After that, tests were carried on immediately according to the methods in the literature[Xu Shuyun, Methodology in Pharmacological Experiment (the 3rd version): 1313]. The intestinal propulsive rates were calculated, and t test was used for the intergroup comparison.

rats [2] = assay: Formation of granuloma in rats (arthritis example, test 4); conditions: 20 mg/kg intragastric, two weeks
Protocol: Rats were randomly divided into five groups (model control group, indomethacin group, rhein glucosamine large dose group and small dose group and rhein sodium group). Each group has 10 […]. According to the method in the literature [Xu Shuyun, Methodology in Pharmacological Experiment (the 3rd version): 918], the models were built, and the rats were administered with medicines since the day when starting operations. […] Two weeks later, the rats were killed and test was carried on according to the method in the literature. The net weight of granulation was calculated, and t test was used for the intergroup comparison.

mice [3] = assay: Capillary permeability of mice; conditions: dosage 12 mg/kg
Protocol: Each group has 12 mice, administration: 0.20 ml/10 g. Mice in the model control group were administrated with isovolumic physiologic saline.

[4] = test system: obese rats of high-fat and high-sugar diet; assay: Body weight of obese rats of high-fat and high-sugar diet; conditions: Group E
From the text: Group A: conventional diet, 4 weeks later, started to carry on intragastric administration, and the same volume of distilled water as the control, once daily, three weeks in succession.
Group B: high-fat high-sugar diet, 4 weeks later, started to carry on intragastric administration, and the same volume of distilled water as the model control, once daily, three weeks in succession.
Group C: high-fat high-sugar diet, 4 weeks later, started to carry on intragastric administration of rhein lysine conjugates [dose: 90 mg/kg (0.209 mmol/kg), prepared by distilled water], once daily, three weeks in succession.
Group D: high-fat high-sugar diet, 4 weeks later, started to carry on intragastric administration of rhein lysine conjugates [dose: 45 mg/kg (0.105 mmol/kg), prepared by distilled water], once daily, three weeks in succession.
Group E: high-fat high-sugar diet, 4 weeks later, started to carry on intragastric administration of rhein sodium [dose: 65 mg/kg (0.212 mmol/kg), prepared by distilled water], once daily, three weeks in succession.

rats [5] = assay: Intestinal adhesion in rats; conditions: 6 mg/kg once a day, 7th day
Protocol: Rats were fasted for 12 h and models were built according to the methods in the literature [Xu Shuyun, Methodology in Pharmacological Experiment (the 3rd version): 1335]. The rats were randomly divided into five groups, namely, model control group, dexamethasone group, rhein sodium group, rhein glucosamine large dose group and low dose group. Each group included 12 rats. […] The rats of the model group were administered with the same volume of NS, while the rats of the positive control group were administered with dexamethasone, administered once every two days, dose: 10 mg/kg. The administration volume was the same as the treatment group. The rats were killed on the 7th day and carried on laparotomy. Adhesion degree was classified and scored respectively. The classification and score of the observed index-adhesion degree can refer to the five-grade classification method prepared by Nair, and determine the classification standard, see Schedule 13. Intestinal adhesion classification adopts Ridit analysis. The test results are as follows (Table 14): […]

[6] = test system: rabbits' ear marginal veins; assay: Safety of hydro-acupuncture injection: irritation of rabbits' ear marginal vein; conditions: rabbit, in vivo
From the text: In rabbits' ear marginal vein aseptic operation, rhein sodium salt, rhein arginine conjugates and 0.9% sodium chloride injection liquid were slowly filled into the veins respectively every two days for three consecutive times.

rats [7] = assay: Carrageenan-induced acute pleurisy exudation and leukoplania in rats; conditions: intraperitoneal 20 mg/kg, four hours after carrageenan
Protocol: Forty male rats of 200±20 g weight were selected and divided into five groups, namely, model control group, indomethacin group, rhein sodium group, rhein glucosamine large dose group and small dose group. Eight rats for each group. The rats were administered with medicines by intraperitoneal administration, one hour later, the rats were induced with acute pleurisy by carrageenan according to the method in the literature [Xu Shuyun, Methodology in Pharmacological Experiment (the 3rd version): 916]. Four hours later, the rats were killed and the volume of pleural effusion and total white cell count were measured.

rats [8] = assay: Formation of cotton ball granuloma in rats (Example 59 Test 2); conditions: 12 mg/kg intragastric, two weeks
Protocol: Rats were randomly divided into five groups (model control group, indomethacin group, rhein glucosamine large dose group and low dose group and rhein sodium group). Each group included 10 rats, and built models according to the method in the literature [Xu Shuyun, Methodology in Pharmacological Experiment (the 3rd version): 918]. The rats were administered by medicines from the day when starting the operation. […] The rats were killed in two weeks, and tests were performed according to the methods in the literature, the net weight of granulation was calculated, and t test was used for the intergroup comparison.

obese hyperglycemia mice = assay: Body weight and blood glucose of obese hyperglycemia mice
Protocol: 9-week-old obese mice of hyperglycemia were randomly divided into: rhein sodium group, non-treatment group, rosiglitazone group, rhein lysine high-dose group and low-dose group, each group has 6 mice. Kunming mice of the same age were used as the control group, which were fed by conventional feedstuff with free food and water feeding. Rhein lysine conjugates [the dose is 180 mg/kg (0.418 mmol/kg) and 90 mg/kg (0.209 mmol/kg) for intragastric infusion, prepared with distilled water], dose of the rhein sodium group is 130 mg/kg (0.424 mmol/kg), the mixture was dissolved with distilled water, intragastric administration; rosiglitazone group (the dose is 4 mg/kg), the mixture was dissolved with distilled water, intragastric administration, and the rats of the other two groups were administered with the same volume of distilled water, once a day, 12 weeks of administration in succession. The animals' body weight and blood sugar were measured regularly, and statistical analysis was conducted.

[9] = baseline of group given ig 130 mg/kg once a day

## O=C(O)c1cc(O)c2c(c1)C(=O)c1cccc(O)c1C2=O [Rhein sodium salt, rhein sodium salt]
Mice [1]
  Propulsive rate: 51.69 ± 7.1 %
Rats [2]
  Net weight of granulation: 15.23 ± 2.99Δ Δ mg
Mice [3]
  absorbance value: 0.494 ± 0.134
[4]; after three weeks ig 65 mg/kg once daily
  The body weight increased 7 weeks after high-sugar high-fat diet: 17.1 ± 4.1 g
[4]; before start of ig 65 mg/kg
  The body weight increased 4 weeks after high-sugar high-fat diet: 15.8 ± 4.3 g
Rats [5]; number of 12 rats with completely no adhesion
  Rating of adhesion degree 0: 1
Rats [5]; number of 12 rats with more than two adhering zones
  Rating of adhesion degree III: 3
Rats [5]; number of 12 rats with one adhering zone
  Rating of adhesion degree I: 4
Rats [5]; number of 12 rats with organs adhering to abdominal wall directly
  Rating of adhesion degree IV: 2
Rats [5]; number of 12 rats with two adhering zones
  Rating of adhesion degree II: 2
[6]
  biopsy of rabbits' ear marginal vein: slight with partial endothelial cell necrosis and abscission, and inflammatory response of the surrounding tissues
  irritation on rabbits' ear marginal veins: has irritation
Rats [7]
  Volume of exudation fluid: 0.33 ± 0.12
  WBC: 3.98 ± 1.64 ×109/L
Rats [8]
  net weight of granulation: 15.87 ± 3.31 mg
Obese hyperglycemia mice; [9]
  Blood glucose prior to administration: 28.9 ± 4.8 mmol/L
  Body weight prior to administration: 28.9 ± 1.8 g
Obese hyperglycemia mice; ig 130 mg/kg once a day
  Blood glucose 6 w after administration: 31.2 ± 5.5 mmol/L
  Blood glucose 9 w after administration: 33.5 ± 5.4 mmol/L
  Blood glucose 12 w after administration: 30.1 ± 4.5 mmol/L
  Body weight 6 w after administration: 35.8 ± 1.5 g
  Body weight 9 w after administration: 39.5 ± 1.4 g
  Body weight 12 w after administration: 41.1 ± 1.5 g
